Measurements taken from US7247734B2 (Vernalis (Cambridge) Limited, priority 2001, dated 2007).

Tests used:
[1] = tested on: HCT116 human colon tumour cells; experiment: 96 h growth inhibition assay (SRB), HCT116; type: cell-based; settings: HCT116, 96 h
Description: (§1) The growth inhibition assay employed was based on that described previously (Kelland et al., 1993). HCT116 and HT29 human colon tumour cells (American Tissue Culture Collection) were seeded into 96-well tissue culture plates (approximately 1600–2000 cells per well) and allowed to attach for 36 hours. Eight wells were treated with a single concentration from a range of compound concentrations and incubated for 96 hours. Cells were fixed using ice cold 10% trichloroacetic acid (TCA). Plates were then washed five times with water, air dried, and stained with 0.4% sulphorhodamine B (SRB) in 1% acetic acid for 10 minutes. The SRB stain was solubilised in 10 mM Tris-HCl and the absorbance measured at 540 nm using a Titertek Multiscan MCC/340 MKII plate reader (Flow Laboratories, IEC, Basingstoke, N.H.). The absorbance values correspond to total protein content and are used as a measure of cell growth.

[2] = tested on: HSP70 and RAF-1 expression in A2780 human ovarian cancer cells; experiment: Western blotting of HSP70 and RAF-1 in A2780 cells; type: cell-based; settings: 60 nM (5×IC50), various times
Description: (§2) The cellular effects of HSP90 inhibitors can be measured using a number of molecular markers. As already mentioned, HSP90 inhibition leads to the depletion of several important cellular signalling proteins. […] Depletion is normally observed by 6 h, with maximum depletion occurring at 24 h. As well as RAF-1, depletion of several other HSP90 client proteins can be measured by immunoblotting e.g., CDK4, ERBB2. However, it is important to note that some of these proteins are cell line specific e.g., ERBB2 is expressed mainly in breast, thyroid, kidney and some ovarian tumour cell lines. Another very important marker of HSP90 inhibition is heat shock protein 70 (HSP70). A HSF-1 (heatshock factor 1) dependent increase in HSP70 levels has been reported by us and other groups (see, e.g., Whitesell et al., 1994; Clarke et al., 2000) and this effect can serve as a positive indicator of HSP90 inhibitor action. The immunoblotting method described is based on standard techniques but is described in detail for ease of reference.
Prepare as required and store at −20° C. • (4) Bicinchoninic acid (BCA) protein assay reagents (PerBio Science UK, Ltd., Chester, UK). • (5) Casein blocking buffer (0.5% casein, 0.02% thimerosal, in PBS). […]
(§3) Comments • (1) The protein bands are normally evaluated visually. […]

[3] = tested on: HT29 human colon tumour cells; experiment: 96 h growth inhibition assay (SRB), HT29; type: cell-based; settings: HT29, 96 h
Description: as §1

[4] = tested on: HSP70 and client protein (CDK4) expression in HT29 cells; experiment: Western blotting of HSP70 and CDK4 in HT29 cells; type: cell-based, human; settings: 24 hours, various concentrations
Description: as §2
Prepare as required and store at −20° C. • (4) Bicinchoninic acid (BCA) protein assay reagents (PerBio Science UK, Ltd., Chester, UK). • (5) Casein blocking buffer (0.5% casein, 0.02% thimerosal, in PBS). Store at 4° C. for up to 2 weeks. • (6) Wash buffer (phosphate buffered saline, PBS) containing 0.05% Tween 20). • (7) Tris-glycine gradient polyacrylamide precast gels (4–20%) (1 mm thick) (Novex, InVitrogen, Groningen, NL). • (8) Nitro-cellulose membrane (0.2 μm pore size) (InVitrogen, Groningen, NL). • (9) Ponceau Red stain (2% w/v in 30% TCA/30% […], Sigma Aldrich Ltd., Pool, UK). • (10) Enhanced chemiluminescence (SuperSignal) reagents (PerBio Science UK, Ltd., Chester, UK). • (11) Photographic film (Hyperfilm ECL, Amersham Pharmacia Biotech, Little Chalfont, Bucks, UK). Method
The following protocol was used: • (1) Lyse cells (approx 4×10^6) in 100 μl lysis buffer for 30 minutes on ice. When adding the lysis buffer, shear cells by pipetting up and down using a Gilson P200 pipette. • (2) Spin lysates for 10 min at 13,000 rpm at 4° C., retrieve supernatant and store at −70° C. • (3) Determine protein concentration using BCA protein assay reagents. • (4) Load samples of cell lysates (50 μg protein/lane) onto gel and separate proteins by SDS-polyacrylamide gel electrophoresis (SDS-PAGE) using a 4–20% Tris-glycine gel. • (5) Transfer proteins to nitrocellulose membrane using optimum conditions for the equipment available. For example, 150 mA for 2 h using the Mighty Small transfer system (Hoeffer TE22 Mini Tank Transphor Unit, Amersham Pharmacia Biotech, Little Chalfont, Bucks, UK). […]
as §3

C=CCNC1=C2C[C@@H](C)C[C@H](OC)[C@H](O)[C@@H](C)/C=C(\C)[C@H](OC(N)=O)[C@@H](OC)/C=C\C=C(/C)C(=O)NC(=CC1=O)C2=O [Example 17AAG, 17-allylamino-17-demethoxygeldanamycin, reference compound]
IC50 [1]: 100 nM | HSP70 expression (immunoblot) [2]: induced | RAF-1 expression (immunoblot) [2]: depleted | IC50 [3]: 10 nM | CDK4 client protein expression (immunoblot) [4]: depleted | HSP70 expression (immunoblot) [4]: induced
